One experiment addresses T1, BTK (Homo sapiens, UniProt Q06187).
T1 construct: purchased Cama
Kind of experiment: Assay to determine activity against BTK. Type of experiment: biochemical. To be noted: 1 mM ATP, 2 nM BTK, 90 minutes at room temperature. As to the method:
Solutions of compounds (test or control) in DMSO were prepared at the desired concentrations, and serially diluted to 11 concentrations by 3-fold dilution in 384pp-plate using TECAN EVO200. 20 nL of stock were transferred to 384 plate using Echo550. DMSO was used as vehicle control.
(BTK was obtained from Cama; FLPeptide2 was obtained from PerkinElmer and Ibrutinib was obtained from Selleck.) 5 μL of ATP solution were added to each well, followed by addition of 15 μL of BTK solution to initiate the reaction. (Note the final volume of each well was 20 μL containing MgCl2 (10 mM), Brij-35 (0.01%), DTT (2 mM), BSA (0.05%), EGTA (1 mM), HEPE (pH7.5) (50 mM), FLPeptide (1.5 uM), ATP (1 mM) and BTK (2 nM).
The plates were incubated at room temperature for 90 minutes and then stopping buffer added (75 μL, containing 0.5 M EDTA) to terminate the reaction. Samples from each well were analyzed using EZ reader. The % remaining activity was calculated using read conversion ratio (CR) according to the equation: […]
XLFit (equation 201) was used to calculate IC50's by floating both bottom and top.

In another experiment the test system is BTK in RAMOS B cells. The experiment can be described thus: Assay to determine BTK activity in RAMOS B cells (anti-IgM, FLIPR Calcium 6). The format is cell-based. The conditions noted are these: anti-IgM EC80, calcium readout. As to the method:
On the day before assay, Ramos B cells were plated in plating medium (RPMI1640 medium containing 1% FBS and 1× pencillin-streptomycin). On the day of the assay, 2× dye solution was prepared following the manual of the FLIRP Calcium 6 Assay Kit: Dilute the dye with assay buffer (20 mM HEPES in IX HBSS, pH7.4); Add probenecid to the final concentration of 5 mM; vortex vigorously for 1-2 minutes. Cells were collected by centrifuging, and the pellet was re-suspended in plating medium. After counting, cells were re-suspended at a density of 3×10^6/ml in plating medium. Equal volume of 2× dye solution was added to the cell suspension. Cells were then plated at 20 μl/well into a 384-well poly-D-lysine coated plate. Plate was centrifuged at 1000 rpm for 3 minutes and then incubated at 37° C. for 2 hours followed by an additional 15-minute incubation at 25° C. Compounds were prepared at 3× concentration in dilution buffer (20 mM HEPES and 0.1% BSA in 1×HBSS, pH 7.4). Serially diluted compound was transferred from source plate to a 384-well compound plate by using an Echo 550 (Labcyte). 20 μl/well compound dilution buffer was added to the compound plate and mixed on plate shaker for 2 mins. 4× EC80 of Anti-IgM (Jackson ImmunoResearch) was prepared in dilution buffer and 20 μl/well was added to a new 384-well compound plate. After 60 mins of incubation at 25° C. in the dark; cell plate, compound plate containing 4×EC80 of anti-IgM and FLIPR tips were placed into FLIPR (Molecular Devices). 10 ul/well of 4×EC80 anti-IgM was transferred to the cell plate by FLIPR. Plates were read for 160 sec with 1 sec interval.

Bounds are passed on as bounds.

In general, IC50 refers to the concentration that inhibits the measured activity by half.

T1 sequence (Q06187 whole entry): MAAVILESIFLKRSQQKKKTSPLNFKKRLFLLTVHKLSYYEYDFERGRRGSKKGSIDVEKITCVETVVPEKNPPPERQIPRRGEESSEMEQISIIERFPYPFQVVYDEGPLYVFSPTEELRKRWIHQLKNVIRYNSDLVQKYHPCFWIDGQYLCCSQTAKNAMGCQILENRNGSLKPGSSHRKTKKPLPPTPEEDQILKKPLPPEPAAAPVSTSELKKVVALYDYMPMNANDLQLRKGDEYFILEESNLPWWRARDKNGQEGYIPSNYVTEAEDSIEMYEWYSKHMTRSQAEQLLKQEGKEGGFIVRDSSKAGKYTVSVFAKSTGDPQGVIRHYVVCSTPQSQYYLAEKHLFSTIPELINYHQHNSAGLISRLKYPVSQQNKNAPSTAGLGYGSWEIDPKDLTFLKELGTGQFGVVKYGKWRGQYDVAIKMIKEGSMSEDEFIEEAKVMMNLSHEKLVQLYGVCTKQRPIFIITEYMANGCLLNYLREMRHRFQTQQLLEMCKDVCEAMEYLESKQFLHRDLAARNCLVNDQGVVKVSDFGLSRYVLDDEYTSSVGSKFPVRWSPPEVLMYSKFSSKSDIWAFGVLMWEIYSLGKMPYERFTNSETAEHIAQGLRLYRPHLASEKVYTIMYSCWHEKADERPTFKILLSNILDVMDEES

`C=CC(=O)N1CC[C@@H]2CCN(c3c(F)cc(C(N)=O)c4[nH]c5c(c34)CCCCC5)C[C@@H]21` [Compound 4-2, 1-((3aS,7aR)-1-acryloyloctahydro-6H-pyrrolo[2,3-c]pyridin-6-yl)-2-fluoro-5,6,7,8,9,10-hexahydrocyclohepta[b]indole-4-carboxamide]: the IC50 on BTK was at least 100 nM; in the experiment on BTK in RAMOS B cells (Homo sapiens, Ramos), at least 100 nM.

For `CC#CC(=O)N[C@@H]1C=C(c2c(F)cc(C(N)=O)c3[nH]c4c(c23)CCC4)CCC1` [Compound 10-3, 8-[(3 S)-3-(but-2-ynoylamino)cyclohexen-1-yl]-7-fluoro-1,2,3,4-tetrahydrocyclopenta[b]indole-5-carboxamide], the half-maximal inhibitory concentration (IC50) against BTK is below 10 nM; in the experiment with BTK in RAMOS B cells (Homo sapiens, Ramos), below 10 nM.

With `C=CC(=O)N1CCc2c(cccc2-c2c(C)nc(C(N)=O)c3[nH]c4c(c23)CCCC4)C1` (single isomer, unassigned) [Compound 2-6, 4-(2-acryloyl-1,2,3,4-tetrahydroisoquinolin-5-yl)-3-methyl-6,7,8,9-tetrahydro-5H-pyrido[3,4-b]indole-1-carboxamide], the IC50 was below 10 nM on BTK and 10 to 100 nM with BTK in RAMOS B cells.

In the case of `CC#CC(=O)N(C)[C@H]1CCCN(c2c(F)cc(C(N)=O)c3[nH]c4c(c23)CCC4)C1` [Compound 10-7, 8-[(3S)-3-[but-2-ynoyl(methyl)amino]-1-piperidyl]-7-fluoro-1,2,3,4-tetrahydrocyclopenta[b]indole-5-carboxamide], the IC50 on BTK is below 10 nM; in the experiment with BTK in RAMOS B cells (Homo sapiens, Ramos), 10 to 100 nM.

`C=CC(=O)N1CCc2c(cccc2-c2c(F)cc(C(N)=O)c3[nH]c4c(c23)CC2(CCOCC2)CC4)C1` [Compound 7-19, 5-(2-acryloyl-1,2,3,4-tetrahydroisoquinolin-5-yl)-6-fluoro-1,2,2′,3′,4,5′,6′,9-octahydrospiro[carbazole-3,4′-pyran]-8-carboxamide]: the IC50 against BTK is 10 to 100 nM; in the experiment on BTK in RAMOS B cells (Homo sapiens, Ramos), at least 100 nM.

With `CC#CC(=O)N[C@H]1C[C@H](F)CN(c2c(F)cc(C(N)=O)c3[nH]c4c(c23)CCC4)C1` [Compound 10-8, 8-((3S,5S)-3-(but-2-ynamido)-5-fluoropiperidin-1-yl)-7-fluoro-1,2,3,4-tetrahydrocyclopenta[b]indole-5-carboxamide], the IC50 against BTK was below 10 nM; in the experiment on BTK in RAMOS B cells (Homo sapiens, Ramos) it was below 10 nM.

Turning to `C=CC(=O)N1CCc2c(cccc2-c2c(C)nc(C(N)=O)c3[nH]c4c(c23)CCCC4)C1` (single isomer, unassigned) [Compound 2-7, 4-(2-acryloyl-1,2,3,4-tetrahydroisoquinolin-5-yl)-3-methyl-6,7,8,9-tetrahydro-5H-pyrido[3,4-b]indole-1-carboxamide], the IC50 at BTK and in the experiment on BTK in RAMOS B cells was at least 100 nM throughout.

`C=CC(=O)Nc1cccc(-c2c(F)cc(C(N)=O)c3[nH]c4c(c23)CCCCC4)c1` [Compound 5-3, 1-(3-acrylamidophenyl)-2-fluoro-5,6,7,8,9,10-hexahydrocyclohepta[b]indole-4-carboxamide]: the IC50 is 10 to 100 nM on BTK and 10 to 100 nM in the experiment with BTK in RAMOS B cells (Homo sapiens, Ramos).

With `CC#CC(=O)N[C@H]1CCCN(c2c(F)cc(C(N)=O)c3[nH]c4c(c23)CCN(C)CC4)C1` [Compound 9-5, (S)-10-(3-(but-2-ynamido)piperidin-1-yl)-9-fluoro-3-methyl-1,2,3,4,5,6-hexahydroazepino[4,5-b]indole-7-carboxamide], the IC50 is below 10 nM against BTK and 10 to 100 nM in the experiment on BTK in RAMOS B cells (Homo sapiens, Ramos).

`C=CC(=O)N1CCC=C(c2cnc(C(N)=O)c3[nH]c4c(c23)CCCC4)C1` [Compound 2-2]: the IC50 against BTK is 10 to 100 nM; in the experiment with BTK in RAMOS B cells (Homo sapiens, Ramos), 10 to 100 nM.

As for `C=CC(=O)N1CCc2c(cccc2-c2cnc(C(N)=O)c3[nH]c4c(c23)CC(F)(F)CC4)C1` [Compound 7-29, 4-(2-acryloyl-1,2,3,4-tetrahydroisoquinolin-5-yl)-6,6-difluoro-6,7,8,9-tetrahydro-5H-pyrido[3,4-b]indole-1-carboxamide], the IC50 against BTK is 10 to 100 nM; with BTK in RAMOS B cells (Homo sapiens, Ramos), 10 to 100 nM.
